This note sets out measurements from patent publication US10806795B2, “Bispecific anti-hapten/anti-blood brain barrier receptor antibodies, complexes thereof and their use as blood brain barrier shuttles” (Hoffmann-La Roche Inc., priority 2014, dated 2020).

Entries after “also recorded” stand apart in the source; their conditions may differ. Starred links: 1 amine or outer side, 2 acyl side, 3 side chain; linkers in the order of their positions; H or OH if unused. Non-standard residues stand in square brackets, D forms with d. No end group written: not given here. Pqa = (4-oxo-6-piperazin-1-yl-4H-quinazolin-3-yl)-acetic acid in the backbone, O=C(Cn1cnc2ccc(N3CCN([*:1])CC3)cc2c1=O)[*:2]; NMeR = CN[C@@H](CCCNC(=N)N)C(=O)O

By Kd is commonly meant the constant that tells how readily two partners part at equilibrium.

Data set [1] in a line: Serum stability of digoxigenylated polypeptide, free or antibody-complexed (Western Blot-related assay of serum). The data set is classed as in vivo, mice (strain NMRI). To be noted: 32.1 nmol, serum 0.08 h, 2 h, 4 h, 24 h, listed as non-complexed polypeptide. As to the method:
Serum samples were stored at −80° C.
The determination of the amount of digoxigenylated peptide in the serum at the given time points was difficult compared to the detection of Dig-Cy5 as no direct means to detect the polypeptide in serum samples was available. Therefore, a Western Blot-related assay to detect digoxigenylated peptide in serum was established. In a first step, the serum samples were separated on reducing SDS-PAGE. Because sample preparation included exposure of the serum to high concentrations of SDS and reducing agents, complexed Dig-polypeptide conjugates can become released from the (completely denatured/unfolded) anti-digoxigenin antibody, whereas covalent conjugates remained bound. To mediate the release of the polypeptide from the non-covalent antibody complex and separate the individual components by SDS-PAGE, 2 μl of each serum sample was diluted in 18 μl 20 mM histidine/140 mM NaCl pH 6.0, mixed with 6.7 μl of 4×LDS sample buffer and 3 μl of 10× sample reducing agent (NuPAGE, Invitrogen) for 5 min at 95° C. As a control, 2 μl of serum of an untreated mouse of the same strain was used. […] Digoxigenylated polypeptides were subsequently detected on the membrane with an anti-digoxigenin antibody. […] Chemiluminescence was detected with the Lumilmager F1 (Roche) with an exposure time of 20 min.
Background: Immunoblotting shows a protein as a band on a membrane.

For data set [2], the target named is T1, NPY2R (Homo sapiens, UniProt P49146).
T1 sequence (P49146 1-381): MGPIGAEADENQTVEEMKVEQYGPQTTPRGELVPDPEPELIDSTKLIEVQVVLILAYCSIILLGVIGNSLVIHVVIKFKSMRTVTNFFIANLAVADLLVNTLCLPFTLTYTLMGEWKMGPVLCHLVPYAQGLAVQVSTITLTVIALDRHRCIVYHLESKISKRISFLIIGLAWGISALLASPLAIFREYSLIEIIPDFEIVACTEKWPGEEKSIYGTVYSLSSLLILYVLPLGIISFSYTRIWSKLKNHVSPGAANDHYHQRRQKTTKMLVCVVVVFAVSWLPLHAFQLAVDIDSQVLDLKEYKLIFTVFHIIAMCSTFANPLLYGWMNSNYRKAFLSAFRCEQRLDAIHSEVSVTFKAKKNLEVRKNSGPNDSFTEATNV
Put plainly: Effect on the Y2Receptor family: NPY2R.

The target in data set [3] is T2, NPY5R (Homo sapiens, UniProt Q15761).
T2 sequence (Q15761 1-445): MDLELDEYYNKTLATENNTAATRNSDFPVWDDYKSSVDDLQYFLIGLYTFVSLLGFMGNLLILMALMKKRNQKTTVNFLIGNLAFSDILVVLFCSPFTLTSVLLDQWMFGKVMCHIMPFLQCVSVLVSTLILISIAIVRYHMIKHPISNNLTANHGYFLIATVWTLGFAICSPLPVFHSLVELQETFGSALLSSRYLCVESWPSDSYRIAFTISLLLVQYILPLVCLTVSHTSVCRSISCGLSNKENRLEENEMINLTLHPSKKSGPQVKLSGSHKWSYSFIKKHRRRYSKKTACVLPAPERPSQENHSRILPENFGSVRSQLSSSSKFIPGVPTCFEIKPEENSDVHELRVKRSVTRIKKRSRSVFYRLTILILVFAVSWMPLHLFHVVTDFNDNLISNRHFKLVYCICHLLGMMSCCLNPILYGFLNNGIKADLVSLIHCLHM
Description: Effect on the Y2Receptor family: NPY5R.

Data set [4] concerns the target NPY4R (Homo sapiens, UniProt P50391). Put plainly: Effect on the Y2Receptor family: NPY4R.
In data set [5] the target is T3, NPY1R (Homo sapiens, UniProt P25929).
T3 sequence (P25929 1-384): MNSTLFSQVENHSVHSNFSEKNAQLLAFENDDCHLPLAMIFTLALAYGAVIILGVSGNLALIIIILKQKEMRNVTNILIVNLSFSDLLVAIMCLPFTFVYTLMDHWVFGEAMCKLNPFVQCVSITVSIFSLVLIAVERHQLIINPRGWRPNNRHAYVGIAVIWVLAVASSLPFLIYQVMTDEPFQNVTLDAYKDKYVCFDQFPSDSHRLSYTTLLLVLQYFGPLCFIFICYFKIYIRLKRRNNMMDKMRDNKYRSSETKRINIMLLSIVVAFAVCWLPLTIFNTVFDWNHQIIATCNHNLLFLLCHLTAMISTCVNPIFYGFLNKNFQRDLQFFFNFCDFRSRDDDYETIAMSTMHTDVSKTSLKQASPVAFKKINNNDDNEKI
Put plainly: Effect on the Y2Receptor family: NPY1R.

On the set-up of data set [6]: species or system mice. To be noted: mouse, in vivo. The source says: The control group was not pre-injected with the anti-biotin antibody.
Data set [7] addresses anti-helicar motif amino acid sequence antibody. Description: Binding [Kd] of PYY peptides by anti-helicar motif amino acid sequence antibody.

Chain of NPY4R (P50391 whole entry, species assumed): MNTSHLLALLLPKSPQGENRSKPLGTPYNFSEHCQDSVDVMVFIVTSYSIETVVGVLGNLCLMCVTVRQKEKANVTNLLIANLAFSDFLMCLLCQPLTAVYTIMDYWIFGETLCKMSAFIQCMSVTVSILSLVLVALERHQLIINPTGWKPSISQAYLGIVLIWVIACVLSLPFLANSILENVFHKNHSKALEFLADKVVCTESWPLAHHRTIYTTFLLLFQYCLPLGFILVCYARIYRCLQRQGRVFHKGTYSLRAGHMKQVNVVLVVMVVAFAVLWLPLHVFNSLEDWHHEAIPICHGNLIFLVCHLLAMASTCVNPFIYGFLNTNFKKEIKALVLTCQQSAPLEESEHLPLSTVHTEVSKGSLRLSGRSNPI

In the case of `CC[C@H](C)[C@H](NC(C)=O)C(=O)N[C@@H](CCCCNC(=O)CCOCCOCCOCCNC(=O)CO[C@H]1CC[C@@]2(C)[C@H](CC[C@@H]3[C@@H]2C[C@@H](O)[C@]2(C)[C@@H](C4=CC(=O)OC4)CC[C@]32O)C1)C(=O)N1CCN(c2ccc3ncn(CC(=O)N[C@@H](CCCNC(=N)N)C(=O)N[C@@H](Cc4c[nH]cn4)C(=O)N[C@@H](Cc4ccc(O)cc4)C(=O)N[C@@H](CC(C)C)C(=O)N[C@@H](CC(N)=O)C(=O)N[C@@H](Cc4c[nH]c5ccccc45)C(=O)N[C@H](C(=O)N[C@H](C(=O)N[C@@H](CCCNC(=N)N)C(=O)N[C@@H](CCC(N)=O)C(=O)N(C)[C@@H](CCCNC(=N)N)C(=O)N[C@@H](Cc4ccc(O)cc4)C(N)=O)[C@@H](C)O)C(C)C)c(=O)c3c2)CC1` [Ac-PYY(PEG3-Dig)], the “presence/amount of the digoxigenin polypeptide in murine serum” value in data set [1] is “barely any signal associable to the small polypeptide was detectable even at the earliest time point; also recorded: very short half-life in the serum of mice”.

“Ac-Ile-Lys-Pqa-Arg-His-Tyr-Leu-Asn-Trp-Val-Thr-Arg-Gln-(NMe)-Arg-Try-NH2 * 4 HOAc (Ac-IK[Pqa]RHYLNWVTRQ[NMeR]Y-NH2; also: 4 HOAc salt)” yielded an NPY2R in data set [2] of 1.0 nM. Further, the NPY5R entry in data set [3] is on record as “in-”. The NPY4R result in data set [4] is “in-”. For the same molecule, in data set [5], the NPY1R entry was “in-”.

For “Biotin-O2Oc-Ser-O2Oc-DADOO-Cy5 [Biotin-Cy5]”, the “serum half-life and exposure levels” value in data set [6] was “eliminated with a low serum half-life and low exposure levels”.

For “IKPEAPGEDASPEAHLANEVARLHYLNLVTRQRY-NH2 [PYY_helicar]”, the NPY2R in data set [2] stood at 6.38 nM. Besides, in data set [7], the Kd turned out to be 12 nM. In addition, the NPY5R result in data set [3] was “in-”. Also, the NPY4R entry in data set [4] is recorded as “in-”.
